SMILES strings stand for the structures.

The experiment has as its target T1, Ammonium transporter MEP2 (Saccharomyces cerevisiae (strain ATCC 204508 / S288c), UniProt P41948).
T1 sequence (P41948 whole entry): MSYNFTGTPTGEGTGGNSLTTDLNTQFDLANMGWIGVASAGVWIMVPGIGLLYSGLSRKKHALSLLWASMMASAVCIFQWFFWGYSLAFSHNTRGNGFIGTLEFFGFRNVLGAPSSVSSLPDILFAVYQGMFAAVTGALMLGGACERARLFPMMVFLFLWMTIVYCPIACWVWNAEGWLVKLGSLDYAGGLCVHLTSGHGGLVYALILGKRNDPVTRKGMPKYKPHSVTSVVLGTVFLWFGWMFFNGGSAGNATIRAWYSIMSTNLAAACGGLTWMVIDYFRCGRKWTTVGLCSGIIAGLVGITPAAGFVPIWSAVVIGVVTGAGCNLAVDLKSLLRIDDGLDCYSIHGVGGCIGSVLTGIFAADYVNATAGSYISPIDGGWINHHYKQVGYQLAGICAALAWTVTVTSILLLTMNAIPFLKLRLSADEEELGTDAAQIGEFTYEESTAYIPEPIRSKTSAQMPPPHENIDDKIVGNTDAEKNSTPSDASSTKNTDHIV
As to the kind of experiment: TOR pathway reporter MEP2-GFP, concentration series – S. cerevisiae, flow cytometry GFP, MLPCN hits, dose response (AID 2742).

For `CCN1/C(=C/c2ccc3cc(C)ccc3[n+]2CC)Sc2ccc3sccc3c21` [MLS000724336], the EC50 (in general, the concentration at which the effect is half-maximal) was greater than 33 µM.

These data come from BindingDB's records for doi:10.7270/Q2F18X5F (Nmmlsc, 2010).
